Where a chain is given by its changes, count along the chain named. Where a SMILES comes first, the peptide text is derived from it.
Legend:
[1] = target: T1, hTAS1R2 + hTAS1R3 L782A^6.55 (Homo sapiens, UniProt Q7RTX0+Q8TE23, L782A); experiment: Calcium response (FLIPR), hTAS1R3 mutant coexpressed with hTAS1R2; type: cell-based; settings: variant L782A^6.55; for EC50: (>) EC50 not calculable because saturation is not reached; for Emax: read-out: maximal signal (% of wt)
T1 construct: expressed in transfected cells; host or cells: HEK293T cells stably expressing G16Gust44
T1 sequence (Q8TE23 20-839): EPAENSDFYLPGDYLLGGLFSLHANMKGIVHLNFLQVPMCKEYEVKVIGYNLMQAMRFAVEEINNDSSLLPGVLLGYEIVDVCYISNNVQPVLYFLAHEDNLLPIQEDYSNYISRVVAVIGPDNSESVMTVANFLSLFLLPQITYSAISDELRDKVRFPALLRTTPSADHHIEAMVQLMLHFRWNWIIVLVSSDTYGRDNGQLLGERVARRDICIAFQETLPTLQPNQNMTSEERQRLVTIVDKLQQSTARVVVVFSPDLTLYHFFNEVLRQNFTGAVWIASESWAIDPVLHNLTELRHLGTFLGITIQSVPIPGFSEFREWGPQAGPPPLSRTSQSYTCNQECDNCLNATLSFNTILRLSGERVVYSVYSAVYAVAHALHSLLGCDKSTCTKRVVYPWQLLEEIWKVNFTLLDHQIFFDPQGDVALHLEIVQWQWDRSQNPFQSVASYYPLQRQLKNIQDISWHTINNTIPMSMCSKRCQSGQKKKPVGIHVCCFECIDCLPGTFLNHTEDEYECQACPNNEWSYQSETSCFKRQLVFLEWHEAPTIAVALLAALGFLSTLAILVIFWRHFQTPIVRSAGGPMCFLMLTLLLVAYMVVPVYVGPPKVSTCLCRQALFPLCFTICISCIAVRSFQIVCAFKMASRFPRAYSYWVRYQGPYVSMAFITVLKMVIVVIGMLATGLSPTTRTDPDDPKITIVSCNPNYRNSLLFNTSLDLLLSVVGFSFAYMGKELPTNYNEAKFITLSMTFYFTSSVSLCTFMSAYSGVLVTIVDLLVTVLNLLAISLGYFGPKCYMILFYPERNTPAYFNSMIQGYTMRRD
T1 sequence (Q7RTX0 21-852 L782A): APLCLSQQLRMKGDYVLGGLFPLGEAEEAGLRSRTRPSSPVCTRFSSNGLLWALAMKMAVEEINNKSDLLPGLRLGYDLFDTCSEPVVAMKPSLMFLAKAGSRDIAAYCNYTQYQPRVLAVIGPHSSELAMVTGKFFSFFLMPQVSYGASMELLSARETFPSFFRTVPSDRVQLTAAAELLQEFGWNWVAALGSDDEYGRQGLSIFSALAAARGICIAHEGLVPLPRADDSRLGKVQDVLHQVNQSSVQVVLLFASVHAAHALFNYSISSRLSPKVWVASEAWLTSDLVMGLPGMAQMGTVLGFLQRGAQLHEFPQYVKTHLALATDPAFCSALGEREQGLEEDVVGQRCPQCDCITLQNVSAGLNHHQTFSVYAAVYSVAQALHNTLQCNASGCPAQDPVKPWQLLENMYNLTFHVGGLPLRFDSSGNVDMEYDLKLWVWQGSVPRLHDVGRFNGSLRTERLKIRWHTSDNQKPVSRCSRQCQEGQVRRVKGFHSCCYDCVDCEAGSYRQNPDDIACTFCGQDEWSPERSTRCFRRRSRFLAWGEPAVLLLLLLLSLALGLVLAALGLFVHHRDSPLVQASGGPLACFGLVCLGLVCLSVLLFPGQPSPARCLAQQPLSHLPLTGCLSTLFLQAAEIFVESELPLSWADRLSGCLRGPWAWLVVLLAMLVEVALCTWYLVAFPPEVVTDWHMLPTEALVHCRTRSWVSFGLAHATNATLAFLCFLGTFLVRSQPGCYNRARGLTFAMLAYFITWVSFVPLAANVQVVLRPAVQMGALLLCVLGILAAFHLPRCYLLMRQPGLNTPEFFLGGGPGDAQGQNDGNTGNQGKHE
Summary of the method: (§1)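 HEK293T/G16Gust44, transient transfection of HSV-tagged TAS1R2 + TAS1R3 mutants; Fluo4-AM loading 1 h at 24 h; sweet tastants in C1 solution; FLIPR Ca2+ read; ΔF/F, mock-subtracted; ≥3 independent expts in duplicate.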

[2] = target: T2, hTAS1R2 + hTAS1R3 F778A^6.51 (Homo sapiens, UniProt Q7RTX0+Q8TE23, F778A); experiment: as above; type: cell-based; settings: variant F778A^6.51; for Emax: read-out: maximal signal (% of wt)
T2 construct: expressed in transfected cells; host or cells: HEK293T cells stably expressing G16Gust44
T2 sequence (Q8TE23 20-839): T1 sequence (Q8TE23 20-839)
T2 sequence (Q7RTX0 21-852 F778A): T1 sequence (Q7RTX0 21-852 L782A) with F758A, A762L
Summary of the method: as §1

SMILES | EC50 [1] | Emax [1] | EC50 [2] | Emax [2]
COc1ccc(CCC(=O)c2c(O)cc(O[C@@H]3O[C@H](CO)[C@@H](O)[C@H](O)[C@H]3O[C@@H]3O[C@@H](C)[C@H](O)[C@@H](O)[C@H]3O)cc2O)cc1O [NHDC, neohesperidin dihydrochalcone] | > 3 mM | 50 ± 11% | 1.5 ± 0.4 mM | 50 ± 18%
COC(=O)[C@H](Cc1ccccc1)NC(=O)[C@@H](N)CC(=O)O [aspartame] (HELM PEPTIDE1{D.F.[CO[*:1]]}$$$$V2.0) | 1.7 ± 0.3 mM | 95 ± 90% | 1.2 ± 0.1 mM | 80 ± 80%

— paper PMC2099433, “The binding site for neohesperidin dihydrochalcone at the human sweet taste receptor” (BMC Structural Biology, 2007)
